Patent US20080213780A1, “MULTI-COLOR TIME RESOLVED FLUOROPHORES BASED ON MACROCYCLIC LANTHANIDE COMPLEXES” (Lumiphore, Inc., priority 2007, published 2008)
Where “and” joins values, the source holds several entries; their conditions need not be identical. Identical values can stand only once.

How the values were obtained:
[1] = Fluorescence lifetime decay (time-resolved) of the donor-acceptor conjugate; format: physicochemical; settings: for long lifetime: excitation of BH22IAM and energy transfer to fluorescein: terbium complex, excited at BH22IAM absorption (~340 nm), fluorescein emission 520 nm
Excerpt: A short lifetime corresponding to the direct excitation of fluorescein (3.92 nsec) and a long lifetime corresponding to excitation of BH22IAM and energy transfer to fluorescein (524 nsec).
In another exemplary embodiment, the compounds of the invention emit light at an emission wavelength of the fluorophore attached to the metal chelate through the acceptor-linker. […] For example, compound 3, when coordinated to terbium and excited at a BH22IAM absorption wavelength (˜340 nm), the metal chelate emits at 520 nm, the characteristic wavelength of fluorescein with a lifetime of 524 nsec. The new lifetime is over 100-fold longer than the lifetime for a fluorescein solution that is directly excited (<5 nsec).
The 524 nsec of the conjugated fluorescein is acquired through direct excitation of the Tb-BH22IAM complex at 340 nm, which normally has a very long lifetime (2.6 msec), followed by energy transfer to the conjugated fluorescein and emission at the characteristic wavelength for fluorescein (520 nm).

[2] = Steady-state absorption and emission spectra; format: physicochemical; settings: for emission wavelength / emission maxima: excited at BH22IAM absorption wavelength (~340 nm)
Excerpt: FIG. 8 is a steady-state absorption spectrum of FITC-BH22IAM conjugate.

SMILES	long lifetime: excitation of BH22IAM and energy transfer to fluorescein [1]	absorption maximum (BH22IAM) [2]	absorption maximum (fluorescein) [2]	emission wavelength / emission maxima [2]	lifetime relative to a directly excited fluorescein solution ([1]; 524 nsec versus <5 nsec)
O=C(O)c1cc(NC(=S)NCCCCC2CN3CCNC(=O)c4cccc(c4O)C(=O)NCCN(CCNC(=O)c4cccc(c4O)C(=O)N2)CCN2CCNC(=O)c4cccc(c4O)C(=O)NCCN(CCNC(=O)c4cccc(c4O)C(=O)NCC2)CC3)ccc1-c1c2ccc(=O)cc-2oc2cc(O)ccc12 (stereo not shown) [4a]	520 nsec and 524 nsec	340 nm	490 nm	519 nm and 520 nm	
O=C(O)c1cc(NC(=S)NCCCCC2CN3CCNC(=O)c4cccc(c4O)C(=O)NCCN(CCNC(=O)c4cccc(c4O)C(=O)N2)CCN2CCNC(=O)c4cccc(c4O)C(=O)NCCN(CCNC(=O)c4cccc(c4O)C(=O)NCC2)CC3)ccc1-c1c2ccc(=O)cc-2oc2cc(O)ccc12 (stereo not shown) [compound 3]	524 nsec			520 nm	over 100 fold
